Test results taken from US20030082135A1, “Pathway of RANTES-mediated chemokine synthesis in astrocytes and methods of use therefor” (priority 2001, published 2003).

Tested on: intracellular cAMP in astrocytes
Assay: Intracellular cAMP in astrocytes (EIA)
Assay type: cell-based, mouse
Method: FIG. 8 is a set of bar graphs showing that RANTES reduced intracellular cAMP accumulation in astrocytes. Panel A. Astrocytes were treated with the indicated doses of RANTES or TCA4 for 5 min. Intracellular cAMP was detected as described in Materials and Methods. Values represent the mean±S.E.M of triplicate experiments. Panel B. Kinetics of intracellular cAMP levels. Astrocytes were treated with 100 ng/ml RANTES for indicated times. Panel C. RANTES inhibited forskolin-induced intracellular cAMP accumulation. Astrocytes were pretreated with 1 μM forskolin for 1 h then stimulated with the indicated amount of RANTES for 5 min. Intracellular cAMP was determined by EIA. Values are presented as relative cAMP level and represent the mean±S.E.M. of triplicate experiments.
To further elucidate the RANTES-mediated signaling pathway in astrocytes, intracellular cAMP levels were evaluated following chemokine stimulation. Primary mouse astrocytes were incubated with the indicated dose of RANTES or the negative control chemokine, TCA4 for 5 min and monitored for cAMP levels. RANTES (100 ng/ml) decreased intracellular cAMP levels by 68% in a dose dependent fashion (FIG. 8A).

RANTES
time within which intracellular cAMP was dramatically decreased (100 ng/ml RANTES): ≤ 1 min | decrease of intracellular cAMP levels (100 ng/ml, 5 min): 68% | effect on forskolin-induced cAMP accumulation (1 μM forskolin 1 h, then RANTES 5 min): inhibited forskolin-induced cAMP accumulation in a dose dependent manner
